A melting point compilation (Tetko et al.; mined from patent text by program, amines drawn as free bases though some values may be those of a salt)

Compared with `CCOP(=S)(OCC)ON=C1C=CC(=C(C#N)c2ccccc2)C=C1`, `CCOc1cc(C(=O)O)cc(S(N)(=O)=O)c1-c1ccccc1` is higher in melting point: 66 to 82 °C for the first, 149 to 150 °C for the second.

First: CC=CC(=O)Nc1c(C(O)(C(F)(F)F)C(F)(F)F)ccc2ccccc12
Second: Cn1cc(C(=O)Nc2ccccc2OC(F)(F)C(F)F)c(C(F)F)n1
The melting point of the first is higher: 216 to 217 °C for the first, 117 to 119 °C for the second.

First: CC(C)CNC(=O)[C@H]1C[C@H](C(=O)OC(C)(C)C)N(C(=O)CNC(=O)Nc2cccc(C(=O)O)c2)[C@@H]1c1ccccc1F (racemic)
Second: NS(=O)(=O)c1cc(C(=O)O)cc(NCCCC(=O)O)c1Oc1ccccc1
The melting point of the first is lower: 160 °C for the first, 240 to 241 °C for the second.

First: CCS(=O)(=O)c1ccc(S(=O)(=O)CC)nc1
Second: O=S(=O)(CCCCCl)c1ccccc1
The melting point of the first is higher: 148 to 150 °C for the first, 55 to 58 °C for the second.

First: CCOC(=O)CN1C(=O)[C@@H](N)CCc2ccccc21
Second: CN1C[C@H]2c3ccccc3CC[C@H]2CCC1=O (relative stereo)
The melting point of the first is lower: 106 to 108 °C for the first, 130 to 131 °C for the second.

First: Cc1cc2c(c3occ(-c4ccc(C(C)C)cc4)c13)CCCC2
Second: COc1ccc2c(=O)c(-c3ccc(OCC4CO4)cc3)coc2c1 (stereo not given)
The melting point of the first is lower: 97 to 98 °C for the first, 153 to 154 °C for the second.

First: O=c1cc(-c2ccccc2)oc2c(C=S)cccc12
Second: CC(=O)Nc1c(C(=O)c2ccccc2)[nH]c2cccc(F)c12
The melting point of the first is higher: 153 to 157 °C for the first, 131 to 133 °C for the second.

First: CCOC(=O)C1CCCN(c2ccc([N+](=O)[O-])c(C=C3NC(=O)NC3=O)c2)C1 (stereo not given)
Second: O=C(O)CN1C(=O)C(=Cc2ccc([N+](=O)[O-])cc2)SC1=S
The melting point of the first is lower: 223 to 225 °C for the first, 274 to 277 °C for the second.

Compared with `N#CC=C1CCN(c2ccc(N3C[C@@H](Cn4cc(C#N)nn4)OC3=O)cc2F)CC1`, `C=CCN1CCC2(CC1)CSC1=C(O2)c2ccccc2C(=O)C1=O` is higher in melting point: 78 to 80 °C for the first, 166 to 168 °C for the second.

First: Cc1ccc(S(=O)(=O)NCc2ccccc2)cc1
Second: Cc1ccc(S(=O)(=O)NC(=O)OCCc2ccc(-n3c(C(C)(C)C)nc4c(C)nc(C)cc43)cc2)cc1
The melting point of the first is lower: 115 to 116 °C for the first, 226 °C for the second.

First: CC1(C)SCN(CCCCN2CCN(c3n[nH]c4ccccc34)CC2)C1=O
Second: COC(=O)Cn1c(=O)c2ccccc2n(CCCCCl)c1=O
The melting point of the first is higher: 139 to 142 °C for the first, 119 to 120 °C for the second.

Compared with `Cc1cccc(C)c1NC(=O)CN1CCNCC1CC(N)=O` (stereo not given), `CONC(=O)Cc1cccc(C(=O)c2ccc(Cl)cc2)c1C` is lower in melting point: 172 °C for the first, 150 °C for the second.

First: Cc1cn(-c2ccc(NC(=O)c3ccc(C)c(C#Cc4cnc(NC5CC5)nc4)c3)cc2C(F)(F)F)cn1
Second: Cc1cc(C(=O)O)ccc1Cc1cc2cc(C(F)(F)F)ccc2n1S(=O)(=O)c1cccc(C(C)(C)C)c1
The melting point of the first is lower: 131 to 133 °C for the first, 135 °C for the second.

First: CCC(Nc1ccc(Br)cc1)n1nnc2ccccc21 (stereo not given)
Second: CN(Cc1ccc2c(Br)c(OCc3nnn[nH]3)ccc2c1)C(=O)c1cn(C)c2ccccc12
The melting point of the first is lower: 132 °C for the first, 227 to 228 °C for the second.

First: COc1cc(N)c(Cl)cc1C(=O)NC1CCN(CC2CCN(C(=O)C3CCOCC3)CC2)CC1
Second: COc1cc(C(=O)O)ccc1Cc1cn(C)c2ccc(C(=O)NCC3CCCC3)cc12
The melting point of the first is lower: 235 to 237 °C for the first, 237 to 239 °C for the second.

Compared with `CNC(=O)Cn1nnnc1S`, `CC(=O)NCC(=O)N1CC1C#N` (stereo not given) is lower in melting point: 167 to 168 °C for the first, 102 to 104 °C for the second.

First: C[C@H]1[C@@H](CO)CCN1c1ccc(C#N)c2ccccc12
Second: N#Cc1cn(CCl)cc1-c1ccccc1Cl
The melting point of the first is higher: 158 to 159 °C for the first, 97 to 99 °C for the second.

First: CC1(C)COC(c2ccc(F)cc2-c2ccc3c(c2)CCC(Cc2ccccc2)C3O)=N1 (stereo not given)
Second: Cc1cccc(-c2nc3ccc(O)cc3n2Cc2ccccc2C(F)(F)F)c1
The melting point of the first is lower: 88 to 89 °C for the first, 233 °C for the second.

Compared with `O=C(Cc1ccccn1)NC1CCC2(O)C3Cc4ccc(O)c5c4C2(CCN3CC2CC2)C1O5` (stereo not given), `COC(=O)c1ccccc1C1(c2ccccc2)OCC(CCl)O1` (stereo not given) is lower in melting point: 210 to 212 °C for the first, 90 to 91 °C for the second.

First: COc1ccccc1C(=Cc1ccccc1[N+](=O)[O-])C(=O)O
Second: COc1cccc2c1CCC21NC(=O)c2ccccc21 (stereo not given)
The melting point of the first is lower: 217 to 219 °C for the first, 222 to 224 °C for the second.

First: Cc1c(C(=O)Nc2ccc(N(CCO)CCO)c(C#N)c2)cnn1-c1ccc(F)cc1
Second: N#Cc1c(C(=O)O)cnn1-c1ccc(Cl)cc1
The melting point of the first is lower: 158 to 159 °C for the first, 192 to 195 °C for the second.

First: CCOC(=O)C(C(=O)c1ccc(C#N)cc1)C1c2ccccc2Oc2ccccc21 (stereo not given)
Second: CCOC(=O)c1ccc(NCCc2ccc(OCc3ccccc3)cc2)cc1
The melting point of the first is higher: 141 °C for the first, 94 to 97 °C for the second.

Going from `CCCCSc1ccc(/C=C\C(C)=O)cc1[N+](=O)[O-]` to `N[C@@H](Cc1ccc([N+](=O)[O-])cc1I)C(=O)O`, the melting point rises from 100 °C to over 200 °C.

First: N#Cc1c(Cl)nc2ccc([N+](=O)[O-])cc2c1Cl
Second: Clc1ncnc(Cl)c1Oc1ccccc1
The melting point of the first is higher: 190 to 192 °C for the first, 89 to 90 °C for the second.

First: CCOc1ccccc1N1CCN(C(=O)Nc2nc3ccccc3nc2OCC)CC1
Second: COc1ccc(N2CCN(c3c(C)c(C)c4c(c3C)C(=CCc3ccccc3)C(C)(C)O4)CC2)cc1
The melting point of the first is lower: 120 to 122 °C for the first, 166 to 167 °C for the second.

First: O=C(NO)c1cc2c(Oc3ccc(Cl)cc3)cncc2s1
Second: CCCCOc1ccc(Cl)cc1C(=O)NCc1ccc(CC(=O)O)cc1
The melting point of the first is lower: 145 °C for the first, 172 °C for the second.

Compared with `O=c1oc2cc(Oc3nnnn3-c3ccccc3)ccc2c2c1CN(Cc1ccccc1)CC2`, `O=C(c1ccc(NS(=O)(=O)c2ccccc2Cl)cc1)N1Cc2cccn2Cc2ccccc21` is higher in melting point: 165 to 166 °C for the first, 206 to 210 °C for the second.

First: COC(=O)C(=CNc1ccc(F)cc1)C(=O)C=Cc1ccc(NC(C)=O)cc1
Second: CC(c1ccccc1OCCCC(=O)O)N(c1cc(F)ccc1F)S(=O)(=O)c1ccc(Cl)cc1 (stereo not given)
The melting point of the first is higher: 161 to 164 °C for the first, 141 to 142 °C for the second.

Compared with `COC12CC(CO)CN(C)C1Cc1cn(C(C)(C)C)c3cccc2c13` (stereo not given), `CN1OCC(=O)N(c2ccc(C(C)(C)C)cc2)C1=S` is lower in melting point: 172 to 174 °C for the first, 168 to 170 °C for the second.

First: COCCCc1ccc2oc(-c3cc4cccn4cn3)cc(=NO)c2c1
Second: COC(=O)C(Cc1ccc(OCCN(C)c2nc3ccccc3o2)cc1)OCC(=O)O (stereo not given)
The melting point of the first is higher: 172 to 173 °C for the first, 154 to 155 °C for the second.

First: CC(C)[C@H](NC(=O)OC(C)(C)C)[C@H](O)C(F)(F)F
Second: CCC(=O)c1ccc(C(O)C(C)(C)C)cc1 (stereo not given)
The melting point of the first is lower: 87 to 88 °C for the first, 88 to 91 °C for the second.

First: O=C1c2ccccc2-c2c1c1ccccc1c(=O)n2CCCCCCCNS(=O)(=O)c1ccc(Br)cc1
Second: COCCNC(=O)c1cccc(-c2cccc3cc(Cc4cccc(Cl)c4)sc23)c1
The melting point of the first is higher: 160 to 161 °C for the first, 120 to 134 °C for the second.

First: CCOC(=O)c1ncn(Cc2ccc(Cl)c(Cl)c2)c1C(=O)OCC
Second: CCOC(=O)c1cnc2c(N)cccc2c1
The melting point of the first is higher: 105 to 107 °C for the first, 94 to 96 °C for the second.

First: O=Cc1ccc2c(C=O)c[nH]c2c1
Second: Cc1ccnc2c1C(=O)CC(c1cc(F)ccc1F)C2 (stereo not given)
The melting point of the first is higher: 200 to 203 °C for the first, 75 to 76 °C for the second.

First: CCOC(=O)c1sc(Oc2ccc(O)cc2)c2c1CCc1cnn(C)c1-2
Second: CCc1c(O)cc(O)c(C(=O)c2ccc(OC)cc2)c1CC(=O)N(CCO)CCN1CCOCC1
The melting point of the first is higher: 245 to 246 °C for the first, 235 to 237 °C for the second.

First: CCC1c2cccn2-c2ccc(C(F)(F)F)cc2N1S(=O)(=O)c1ccc(OC)c(Cl)c1 (stereo not given)
Second: Cn1cc(-c2cc(Oc3ccccc3)c(Cl)cc2F)c(=O)cc1C(F)(F)F
The melting point of the first is lower: 126 to 129 °C for the first, 159 to 161 °C for the second.

First: COc1cc2c(c3c1OC(C)(C)C3)C(c1cccc(NS(=O)(=O)N(C)C)c1)=NC(C)(C)C2
Second: C#CCN(Cc1cc2c(=O)[nH]c(COS(C)(=O)=O)nc2cc1Cl)c1ccc(C(=O)OC(C)(C)C)cc1
The melting point of the first is lower: 134 to 136 °C for the first, 178 to 181 °C for the second.

First: CCCc1nc(C#N)c(C#N)[nH]1
Second: CCCc1nc2c(N)nc3ccccc3c2n1CC(C)C
The melting point of the first is lower: 141 to 144 °C for the first, 191 to 192 °C for the second.

First: O=C(CCN1CCNCC1)Nc1ccc2c(c1)C(=O)c1cc(NC(=O)CCN3CCNCC3)ccc1C2=O
Second: c1c(N2CCCC2)nc(N2CCCC2)nc1N1CCN(CCN2CCNCC2)CC1
The melting point of the first is higher: 218 °C for the first, 148 to 149 °C for the second.

Compared with `CC(=O)OCC1OC(n2cc(F)c(=O)[nH]c2=O)CC1OC(C)=O` (stereo not given), `COC1OC(CO)C(O)C(OC)C1O` (stereo not given) is lower in melting point: 151 °C for the first, 56 to 58 °C for the second.

First: O=S1(=O)NC(C2CCCCC2)Nc2ccc(S(=O)(=O)N3CCCCC3)cc21 (stereo not given)
Second: COc1ccc(C(=O)OC2CC3C(=O)NC4(C(=O)NS(=O)(=O)C5CC5)CC4C=CCOCCCC(NC(=O)OC(C)(C)C)C(=O)N3C2)cc1 (stereo not given)
The melting point of the first is higher: 262 to 264 °C for the first, 145 to 147 °C for the second.

First: CCOC(=O)C(C#N)=NOC(=O)OC
Second: CCOC(=O)C(=CNN(C)C)C(=O)c1cc(F)c(F)c(F)c1F
The melting point of the first is lower: 69 to 71 °C for the first, 81 °C for the second.

Compared with `COC(=O)NCCc1ccc(C(=O)OC)c(S(=O)(=O)NC(=O)Nc2nc(OC)cc(OC)n2)c1`, `Cc1cc(CNC(=O)c2sc(N3C[C@@H](C)N(Cc4cc(F)cc(F)c4)C3=O)nc2C)no1` is lower in melting point: 165 to 169 °C for the first, 63 to 66 °C for the second.

First: N#CC1OC(=O)c2c(F)ccc(F)c21 (stereo not given)
Second: CCC(O)(CC)CC1NC(=O)c2ccccc21 (stereo not given)
The melting point of the first is lower: 87 to 89 °C for the first, 130 to 132 °C for the second.

First: CCN(CC)C(Cc1cccs1)=Nc1ccc2sc3ccccc3c2c1
Second: Cc1nc2c(OCc3ccccc3)cc(Br)cn2c1C
The melting point of the first is lower: 114 to 115 °C for the first, 151 to 153 °C for the second.

First: COc1cc2c(Nc3ccc4cn[nH]c4c3)c(C#N)cnc2cc1OCCN1CCSCC1
Second: COc1cc(C(C)C)c(Oc2cnc(N)nc2N)cc1-c1ncon1
The melting point of the first is higher: 213 to 215 °C for the first, 135 to 138 °C for the second.

First: CC(CC(C(O)CC(C)(C)O)N(C)C)C1CCC2C(O)CCCC12C (stereo not given)
Second: CCCCCCCCCC(=O)OC1CCC2C3CCC4=CC(=O)CCC4C3CCC12CC (stereo not given)
The melting point of the first is higher: 169 to 170 °C for the first, 97 to 97.5 °C for the second.

Compared with `Cc1ccc(OCC#CI)c(Cl)n1`, `COc1ccc(Cn2ccnc2C=Cc2ccc([N+](=O)[O-])o2)cc1` is higher in melting point: 130 to 132 °C for the first, 151 to 152 °C for the second.

First: CC1(C)CSc2sc(S(N)(=O)=O)cc2C1O (stereo not given)
Second: CCCN(CCC)C(=O)n1cnc(S(=O)(=O)CCC)n1
The melting point of the first is higher: 158 to 159 °C for the first, 79 to 80 °C for the second.

Compared with `Cc1ccc(-c2ccc3c(c2)C=CCCO3)cc1`, `CCn1nc(OCCCc2ccc(OC(C)C)cc2OCc2ccc(Cl)cc2Cl)cc1CCC(=O)O` is higher in melting point: 98 to 100 °C for the first, 110 to 111 °C for the second.
